Data set [1] deals with Leukemia L1210. Briefly: Activity against Leukemia L1210, intraperitoneal, increase in life span of mice. Format: in vivo, female mice (BDF1 family). The following applies: for ED (maximum ILS) / ED30: Mus musculus, L1210, ip, ip once a day for 5 successive days; for ED (maximum ILS): daily dosage giving maximum increase of life span, read-out: O.D. (optimum dosage); for ED30: daily dosage increasing average survival days by 30%, read-out: ILS30; for Survivors after 60 days / Max. ILS % / Therapeutic ratio TR: ip; for Survivors after 60 days: 6-membered group; for Max. ILS %: 60-day observation, versus control; for Therapeutic ratio TR: O.D./ILS30. An outline of the steps: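 L1210 cells (1×10^5) into abdominal cavity of female BDF1 mice, 20–23 g, n=6/group. Dosing 24 h post-implant, ip or po, qd ×5. 60-day observation; ILS% = mean survival vs untreated control; T.R. = O.D./ILS 30.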

Data set [2] concerns Leukemia L1210. Briefly: Activity against Leukemia L1210, oral, increase in life span of mice. Format: in vivo, female mice (BDF1 family). The settings on record: for ED (maximum ILS) / ED30: Mus musculus, L1210, oral once a day for 5 successive days; for ED (maximum ILS): daily dosage giving maximum increase of life span, read-out: O.D. (optimum dosage); for ED30: daily dosage increasing average survival days by 30%, read-out: ILS30; for Survivors after 60 days / Max. ILS % / Therapeutic ratio TR: oral; for Survivors after 60 days: 6-membered group; for Max. ILS %: 60-day observation, versus control; for Therapeutic ratio TR: O.D./ILS30. On the procedure: Tests were conducted in accordance with the method for measuring antitumor activity of National Cancer Center Tokyo (A, Hoshi et al, Farumashia 9 464 (1973)). Test compounds were each intraperitoneally (referred to as ip) or orally (referred to as op) administered once a day for 5 successive days to a 6-membered group of femal mice (BDF1 family, each weighing 20 to 23 g) 24 hours after 1×10^5 cells of Leukemia L1210 have been implantated into the abdominal cavities of the mice, and the effect was evaluated by comparing the survival days of treated groups with those of an untreated group of mice (control group) in 60-day observation. An increase percentage of life span (ILS%) was calculated from said average survival days compared with those of the control group. Further, therapeutic ratio (O.D./ILD30, referred to as T.R.) of each tested compound was calculated from the daily dosage of the compound necessary to increase said average survival days by 30% as compared with the control group (this dosage is referred to as ILS 30) and the daily dosage giving a maximum increase of life span to mice implantated with L1210 cells, namely an optimum dosage (referred to as O.D.). The results of five successive days intraperitoneal administrations of test compounds were shown in Tables I to III, and those of five successive oral administrations in Table IV.

Data set [3] can be described thus: Acute toxicity (LD50, Behrens-Karber method). The data set is classed as in vivo, ICR mice. The settings on record: mouse, in vivo, ip, mortality during 30 days. On the procedure:
Test compounds, dissolved or suspended in 0.5% aqueous CMC, were each intraperitoneally administered to ICR mice in a dose of 0.1 ml per 10 g body weight. LD50 (mg/kg) value of each test compound was calculated from the mortality of mice during 30 days by the Behrens-Karber method.

Turning to `CCC(COC)O[C@H]1O[C@H](CN(CC(C)(C)C)C(=O)N(CCCl)N=O)[C@@H](O)[C@H](O)[C@H]1O` (stereo partly drawn) [Compound 185, 3-neopentyl-3-(1-methoxy-2-n-butyl α-D-glucopyranose-6-yl)-1-(2-chloroethyl)-1-nitrosourea], in the data set on Leukemia L1210 [1], the ED (maximum ILS) was 170 mg/kg, the ED30 is 2.69 mg/kg, the “Survivors after 60 days” value was 6/6 and the “Max. ILS %” value is recorded as > 700%. The “Therapeutic ratio TR” value in the data set with Leukemia L1210 [1] is 63.1. Also, in the data set on Leukemia L1210 [2], the ED (maximum ILS) amounted to 200 mg/kg, the ED30 stood at 8.16 mg/kg, the “Survivors after 60 days” value is 5/6 and the “Max. ILS %” value is > 625%. For the same compound, the “Therapeutic ratio TR” value in the data set on Leukemia L1210 [2] is 24.5. In data set [3], this compound showed an LD50 at 720 h of 550 mg/kg.
Turning to `COCCCO[C@H]1O[C@H](CN(CC(C)(C)C)C(=O)N(CCCl)N=O)[C@@H](O)[C@H](O)[C@H]1O` [Compound 186, 3-neopentyl-3-(3-methoxy-n-propyl α-D-glucopyranose-6-yl)-1-(2-chloroethyl)-1-nitrosourea], in the data set on Leukemia L1210 [1], the ED (maximum ILS) was 160 mg/kg, the ED30 was 2.49 mg/kg, the “Survivors after 60 days” value was 6/6 and the “Max. ILS %” value is > 700%. Further, the “Therapeutic ratio TR” value in the data set with Leukemia L1210 [1] is 64.3. Further, in the data set on Leukemia L1210 [2], the ED (maximum ILS) came out at 200 mg/kg, the ED30 stood at 8.55 mg/kg, the “Survivors after 60 days” value is recorded as 5/6 and the “Max. ILS %” value is > 620%. Also, the “Therapeutic ratio TR” value with Leukemia L1210 [2] stood at 23.4. The compound also yielded an LD50 at 720 h in data set [3] of 520 mg/kg.
`CCCCOC1OC(CO)C(O)C(N(CC(C)OC)C(=O)N(CCCl)N=O)C1O` [Compound 83, 3-(2-methoxy-n-propyl)-3-(n-butyl α-D-glucopyranose-3-yl)-1-(2-chloroethyl)-1-nitrosourea]: in the data set on Leukemia L1210 [1], the ED (maximum ILS) came out at 200 mg/kg, the ED30 turned out to be 5.03 mg/kg, the “Survivors after 60 days” value was 4/6 and the “Max. ILS %” value is listed as > 425%. Also, in the data set with Leukemia L1210 [1], the “Therapeutic ratio TR” value is 39.8. In the data set on Leukemia L1210 [2], the ED (maximum ILS) came out at 240 mg/kg, the ED30 worked out at 16.8 mg/kg, the “Survivors after 60 days” value is 3/6 and the “Max. ILS %” value is reported as > 360%. The “Therapeutic ratio TR” value in the data set with Leukemia L1210 [2] came to 14.3. In addition, the LD50 at 720 h in data set [3] worked out at 665 mg/kg.
With `COC(C)CN(C[C@H]1O[C@H](OC(C)C)[C@H](O)[C@@H](O)[C@@H]1O)C(=O)N(CCCl)N=O` (stereo partly drawn) [Compound 2, 3-(2-methoxy-n-propyl)-3-(isopropyl α-D-glucopyranose-6-yl)-1-(2-chloroethyl)-1-nitrosourea], in the data set on Leukemia L1210 [1], the ED (maximum ILS) is 140 mg/kg, the ED30 amounted to 2.3 mg/kg, the “Survivors after 60 days” value is listed as 6/6 and the “Max. ILS %” value is > 700%. In the data set on Leukemia L1210 [1], the “Therapeutic ratio TR” value was determined as 60.9. Besides, in the data set with Leukemia L1210 [2], the ED (maximum ILS) was determined as 180 mg/kg, the ED30 was determined as 7.35 mg/kg, the “Survivors after 60 days” value is given as 6/6 and the “Max. ILS %” value is recorded as > 700%. In addition, the “Therapeutic ratio TR” value in the data set with Leukemia L1210 [2] is 24.5. The same compound came in with an LD50 at 720 h in data set [3] of 420 mg/kg.
As to `CCOCCN(C(=O)N(CCCl)N=O)C1C(OC2CCCCC2)OC(CO)C(O)C1O` [Compound 64, 3-(2-ethoxyethyl)-3-(cyclohexyl α-D-glucopyranose-2-yl)-1-(2-chloroethyl)-1-nitrosourea], in the data set on Leukemia L1210 [1], the ED (maximum ILS) was 200 mg/kg, the ED30 was 4.76 mg/kg, the “Survivors after 60 days” value was 4/6 and the “Max. ILS %” value is recorded as > 450%. The “Therapeutic ratio TR” value in the data set on Leukemia L1210 [1] is recorded as 42.0. Moreover, in the data set with Leukemia L1210 [2], the ED (maximum ILS) stood at 240 mg/kg, the ED30 is 13.2 mg/kg, the “Survivors after 60 days” value is on record as 4/6 and the “Max. ILS %” value was > 460%. Moreover, the “Therapeutic ratio TR” value in the data set on Leukemia L1210 [2] worked out at 18.2. Moreover, the LD50 at 720 h in data set [3] is 650 mg/kg.

These data come from patent US4593090A, “Novel nitrosourea compounds, method for preparing same, and pharmaceutical composition containing same” (Gogo Kimura, priority 1981, dated 1986).
